Measured values: PubChem BioAssay (NCI)
Values joined by “and” are separate entries in the source; they are usually repeats but may differ in a detail not shown here. Equal entries are not always repeated.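 In this assay, cells in 96-well plates receive the compound at five concentrations for 48 hours. Endpoints are linearly interpolated between the surrounding concentrations. The concentration for 50% growth inhibition is given as GI50. TGI denotes the concentration required for complete inhibition of growth.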

Assays:
Test in all cases: inhibition of tumour cell growth, NCI panel, 48 h
786-0 renal = tested on: 786-0 renal
OVCAR-8 ovarian = tested on: OVCAR-8 ovarian
UACC-62 melanoma = tested on: UACC-62 melanoma
SNB-19 CNS = tested on: SNB-19 CNS
SF-295 CNS = tested on: SF-295 CNS
SNB-75 CNS = tested on: SNB-75 CNS
UACC-257 melanoma = tested on: UACC-257 melanoma
A549 NSCLC = tested on: A549 NSCLC
HOP-62 NSCLC = tested on: HOP-62 NSCLC
CAKI-1 renal = tested on: CAKI-1 renal

Row | Structure (SMILES) | TGI (786-0 renal) | TGI (OVCAR-8 ovarian) | TGI (UACC-62 melanoma) | TGI (SNB-19 CNS) | TGI (SF-295 CNS) | TGI (SNB-75 CNS) | TGI (UACC-257 melanoma) | TGI (A549 NSCLC) | TGI (HOP-62 NSCLC) | TGI (CAKI-1 renal) | GI50 (786-0 renal) | GI50 (OVCAR-8 ovarian) | GI50 (UACC-62 melanoma) | GI50 (SNB-19 CNS) | GI50 (SF-295 CNS) | GI50 (SNB-75 CNS) | GI50 (UACC-257 melanoma) | GI50 (A549 NSCLC) | GI50 (HOP-62 NSCLC) | GI50 (CAKI-1 renal)
1 | CSC(=S)NNC(=O)c1ccncc1 | 30.8 µM | 40.6 µM | 31.1 µM | 53.1 µM | 46.9 µM | 65.7 µM | 56.7 µM | > 100 µM | 70.2 µM | 56.2 µM | – | – | – | – | – | – | – | – | – | –
2 | C[C@]12CCC(=O)C=C1CC[C@@H]1[C@@H]2CC[C@]2(C)C(=O)/C(=C/c3cccc(OCCN4CCOCC4)c3)C[C@@H]12 | > 100 µM | > 100 µM | 27.5 µM | > 100 µM | 16.6 µM | 31.9 µM | 19 µM | 89.5 µM | 29 µM | 48.3 µM | 12.8 µM | 6.28 µM | 11 µM | 15.8 µM | 3.74 µM | 12 µM | 6.13 µM | 7.17 µM | 12.6 µM | 11.9 µM
3 | Cn1cc(C2=C(c3c4n(c5ccccc35)CCC(CN)CC4)C(=O)NC2=O)c2ccccc21 (centres undefined) | 8.55 µM | 9.8 µM | 7.28 µM | 10.7 µM | 8.02 µM | 4.9 µM | 7.57 µM | 9.24 µM | 8.22 µM | 10.7 µM | 4.58 µM | 4.82 µM | 3.65 µM | 4.52 µM | 4.01 µM | 1.09 µM | 3.89 µM | 4.14 µM | 3.93 µM | 4.75 µM
4 | COc1cccc2c1c1nc3cc(C)c(C)cc3nc1n2CCN(C)C | 5.53 µM | 13.3 µM | 3.37 µM | 14 µM | 7.62 µM | 5.56 µM | 4.74 µM | 12 µM | 11 µM | 6.34 µM | 1.35 µM | 0.798 µM | 1.7 µM | 2.04 µM | 2.17 µM | 1.1 µM | 1.9 µM | 1.99 µM | 1.72 µM | 0.946 µM
5 | Cc1cccc(N=C2c3cc([N+](=O)[O-])ccc3-c3c2cc([N+](=O)[O-])cc3[N+](=O)[O-])c1 | 5.65 µM | 94.1 µM | 20.2 µM | 31.7 µM | > 100 µM | 42.4 µM | 34.5 µM | 32.9 µM | 19.9 µM | 77.9 µM | 2.52 µM | 5.88 µM | 5.03 µM | 14.3 µM | 25.2 µM | 4.59 µM | 6.81 µM | 12.3 µM | 4.28 µM | 15.5 µM
6 | O=C(O)c1cccc(CC(Br)C(=O)O)c1 (centres undefined) | > 100 µM | > 100 µM | > 100 µM | > 100 µM | > 100 µM | > 100 µM | > 100 µM | > 100 µM | > 100 µM | > 100 µM | – | – | – | – | – | – | – | – | – | –
7 | O=C(O)CCC1CCC(c2cc(F)ccc2F)(S(=O)(=O)c2ccc(Cl)cc2)CC1 (centres undefined) | > 100 µM | > 100 µM | > 100 µM | > 100 µM | > 100 µM | 55.8 µM and > 100 µM | > 100 µM | > 100 µM | > 100 µM | 45.1 µM and > 100 µM | 23.8 µM and > 100 µM | 74.8 µM and > 100 µM | 28.2 µM and 97.1 µM | 55.1 µM and > 100 µM | > 56.9 µM | 15.9 µM and > 72.2 µM | 44 µM and > 100 µM | 44.4 µM and > 100 µM | 30.5 µM and > 100 µM | –
8 | O=C(C=Nc1ccccc1C(=O)[O-])c1cccs1.O=C(C=Nc1ccccc1C(=O)[O-])c1cccs1.[Cu+2] | > 100 µM | > 100 µM | > 100 µM | > 100 µM | > 100 µM | > 10 µM | > 100 µM | > 100 µM | > 100 µM | > 100 µM | – | – | – | – | – | – | – | – | – | –
9 | CO[C@H]1CC[C@@]2(C)C(=CC[C@H]3[C@@H]4C[C@H](O)C[C@@]4(C)CC[C@@H]32)C1 | 37.7 µM | 19.2 µM | 16.9 µM | 22.2 µM | 8.02 µM | 23 µM | 17.9 µM | 19.6 µM | 52.4 µM | 16.3 µM | 11.7 µM | 5.14 µM | 3.88 µM | 4.86 µM | 2.45 µM | 3.41 µM | 4.89 µM | 4.42 µM | 10.2 µM | 2.93 µM
10 | CC[C@H](C)C(=O)O[C@H]1CCC=C2C=C[C@H](C)C(CCC3C[C@@H](O)CC(=O)O3)[C@H]21 (some centres undefined) | > 100 µM | > 100 µM | 61.9 µM | > 100 µM | > 100 µM | 7.85 µM | > 100 µM | > 100 µM | > 100 µM | 4.96 µM | 8.71 µM | 3.78 µM | 4.75 µM | 18.4 µM | 1.58 µM | 1.33 µM | > 100 µM | 17.7 µM | 18.1 µM | 1.76 µM
11 | COC(=O)Nc1nc2ccc(Oc3ccc(NC(=O)Nc4cccc(Cl)c4)cc3)cc2[nH]1 | 8.28 µM | > 17.8 µM | 4.78 µM | > 25 µM | 6.59 µM | 8.36 µM | 19.5 µM | 8.87 µM | 4.73 µM | > 21.6 µM | 1.87 µM | 2.84 µM | 0.712 µM | 2.61 µM | 0.777 µM | 0.689 µM | 1.7 µM | 2.02 µM | 0.9 µM | 1.74 µM
12 | CCCCCCCCCC(=O)OCC1OC(n2cc(F)c(=O)[nH]c2=O)C(N)C(OC(=O)CCCCCCCCC)C1O (centres undefined) | 32.9 µM | 34.6 µM | 32.7 µM | 33.6 µM | 31.9 µM | 34.4 µM | 39 µM | 34.1 µM | > 100 µM | > 100 µM | – | – | – | – | – | – | – | – | – | –
13 | Nc1nc(N)c(-c2ccc(Cl)cc2)c(CCC(=O)Nc2cccc(C(F)(F)F)c2)n1 | > 100 µM | > 100 µM | > 100 µM | > 100 µM | > 100 µM | > 100 µM | > 100 µM | > 100 µM | > 100 µM | > 100 µM | – | – | – | – | – | – | – | – | – | –
14 | COC(=O)C#Cc1ccc([N+](=O)[O-])cc1 | 7.04 µM | 7.25 µM | 6.86 µM | 8.47 µM | 10.9 µM | 7.34 µM | 7.12 µM | 7.44 µM | 6.87 µM | 2.74 µM | – | – | – | – | – | – | – | – | – | –
